Results reported in patent publication US9757375B2, “Compounds that inhibit human DNA ligases and methods of treating cancer” (University of Maryland, Baltimore, priority 2007, dated 2017).
Like-named read-outs stand apart in the source and are kept apart here.

Key:
HCT116 and MCF10A cells = assay: Screen for potentiation of DNA damaging agents, cell line not stated with the result; assay type: cell-based, human; settings: for radiosensitizer activity / synergy with PARP inhibitors / enhancement of the cytostatic effect of MMS: 50 μM; for radiosensitizer activity: 2 gray of ionizing radiation; for synergy with PARP inhibitors: 3 AB 2 mM; for cell survival: sensitivity to DNA damaging agent (IR, MMS): cell line not stated; for enhancement of the cytostatic effect of MMS: MMS 100 μM
Description: The 192 human DNA ligase inhibitors were screened in parallel for effects on proliferation and the ability to potentiate the effects of several DNA damaging agents using two cell human lines, a colon cancer line HCT116 and a normal breast epithelial cell line MCF10A using a Biomek FX Laboratory Automation Workstation as described (23). The DNA damaging agents used, methyl methanesulfonate (MMS), camptothecin, cis-platinum, 3 aminobenzamide and ionizing radiation, are representatives of classes of agents used to treat cancer. Briefly, HCT116 and MCF10A cells were plated in 96 well plates such that the cultures were about 80% confluent after 5 days incubation. Compounds were added to the cultures at either 15 μM or 50 μM 1 day after plating. After incubation for 3 days, cell lysed in a solution containing 1.2% Igepal CA-630 and SYBR green that stains DNA (1:1000, Molecular Probes, Eugene, Oreg.). Subsequently, fluorescence was measured per well. The studies with DNA damaging agents were performed as follows. […] For ionizing radiation, cells were pre-incubated with the compounds at 50 μM for 1 hour prior to exposure to 2 gray of ionizing radiation. Cultures were incubated for 3 days and then treated as above.

MCF10A cells = assay: MTT cell growth assay; assay type: cell-based, human; settings: for IC50: Homo sapiens, MCF-10A
How it was run: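 Seeded at 300 cells/well and allowed to adhere overnight, then serial compound dilutions in medium added for 5 days. MTT added for a further 4 h, formazan dissolved in isopropanol, and absorbance read at 560 nm.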

MCF7 cells = assay: Colony forming (survival) assay; assay type: cell-based, human
Procedure: For survival assays, cells were plated in 6 well plates and grown either in the absence or presence of ligase inhibitors. Where indicated, either MMS (0-50 μM) was added to the medium or the cells were irradiated in a Cs-137 irradiator (0-2.5 Gy). After two weeks, colonies were stained with crystal violet (Sigma) and then counted.
To confirm that the DNA ligase inhibitors directly kill cells and potentiate cell killing by DNA damaging agents, we performed colony forming assays.
Different concentrations of Compound 184 were added to asynchronous subconfluent populations of HCT116, MCF7 and MCF10A cells. Colonies were counted after two weeks. (FIG. 6A).
Different concentrations of Compound 67 were added to asynchronous subconfluent populations of HCT116, MCF7 and MCF10A cells. After 1 hour, cultures were irradiated with 2 gray of ionizing radiation. Different concentrations of Compound 67 were added to asynchronous subconfluent populations of HCT116 and MCF10A cells in the absence or presence of MMS (50 μM). Colonies were counted after two weeks. (FIG. 6D).

[1] = tested on: MCF10A, MCF7, HCT116, and HeLa cells; assay: Cell viability after 6 days on cell panel (FIG. 8); assay type: cell-based, human; settings: FIG. 8, 6 days viability; MCF7 colonies, cell cycle
Procedure: FIG. 8. […] A, MCF10A (▪), MCF7 (♦), HCT116 (▴), and HeLa (upsidedown triangle) cells were plated in the absence or presence of L82 (left), L67 (middle), and L189 (right). After 6 days, cell viability was measured and is expressed as a percentage of the value obtained with untreated cells. B, MCF7 cells were plated out in the absence or presence of L82 (top) and L67 (bottom) at the indicated concentrations. After 2 weeks, colonies were stained with crystal violet. C, after serum starvation for 4 days, MCF 7 cells were returned to serum-containing media either without (▪) or with 50 μmol/L of L82 (●). The cell cycle distribution at various time intervals was determined by fluorescence-activated cell sorting. D, asynchronous populations of MCF cells were either untreated (top) or treated with L82 at 10 μmol/L (middle) and 50 μmol/L (bottom). After 3 days, tubulin and DNA were visualized by fluorescence microscopy (bars, […]).

[2] = tested on: Human DNA ligases I, III and IV and T4 DNA ligase; assay: Step 2 of the ligation reaction: DNA-AMP (DNA-adenylate) formation on non-ligatable nick; assay type: biochemical
Procedure: To analyze step 2 of the ligation reaction, labeled ligase-AMP intermediates (10 pmol (22)) were incubated overnight at 25° C. with an unlabeled nonligatable version (dideoxy residue at the 3′-terminus of the nick) of the DNA oligonucleotide substrate (10 pmol), either in the presence or absence of the ligase inhibitors (100 μmol/L).
Since the final two steps of the ligation reaction involve interactions with DNA, we examined the effects of the ligase inhibitors on the second (FIG. 3B) (The labeled ligase-adenylate form of human DNA ligases I, III and IV and T4 DNA ligase were incubated with a linear DNA substrate containing a single non-ligatable nick in the absence or presence of compounds 67, 82 and 189 (100 μM). After separation by denaturing gel electrophoresis, the labeled DNA-AMP complex was detected by phosphorimaging (26)) and third steps (FIG. 3C) of the ligation reaction using established assays (25,26) (Non-adenylated human DNA ligases I, III and IV and T4 DNA ligase were incubated with labeled DNA-AMP in the absence or presence of compounds 67, 82 and 189 (100 μM). After separation by denaturing gel electrophoresis, labeled ligated DNA was detected by phosphorimaging (25)).

[3] = cell growth, compound alone, read-out: IC50 (μM) MCF10A
[4] = sections 'high concentrations (~50 μM)' and 'active in vitro that decreased cell growth', same figures given in μM elsewhere in Table 6, read-out: IC50 MCF10A (head without unit)

SMILES	cell survival: sensitivity to DNA damaging agent (IR, MMS) (HCT116 and MCF10A cells)	IC50 (MCF10A cells; [3])	IC50 (MCF10A cells; [4])	also measured
O=C(O)CSc1cc(Cl)c2nonc2c1[N+](=O)[O-] [Compound 64]	IR sensitive	50 µM	50 µM	radiosensitizer activity (HCT116 and MCF10A cells): act as radiosensitizers; synergy with PARP inhibitors (HCT116 and MCF10A cells): act synergistically with PARP inhibitors; potentiation of the growth inhibitory effect of 3 aminobenzamide (MCF10A cells; MCF10A cells, 3 aminobenzamide 2 mM, 5 days, MTT, FIG. 5B): markedly potentiates
Cc1c(Br)cc(NCC(=O)N/N=C\c2cc([N+](=O)[O-])ccc2O)cc1Br [Compound 67]	IR, MMS sensitive	4 µM	4 µM	potentiation of killing by ionizing radiation (MCF7 cells; MCF7, 2 gray, FIG. 6D): potentiates; potentiation of killing by MMS (MCF7 cells; MCF7, MMS, FIG. 6D): potentiates; synergy with PARP inhibitors (HCT116 and MCF10A cells): act synergistically with PARP inhibitors; enhancement of the cytostatic effect of MMS (HCT116 and MCF10A cells): enhance the cytostatic effect of MMS
O=c1[nH]ncc(N/N=C\c2ccc(O)c([N+](=O)[O-])c2)c1Cl [Compound 82]				effect on cell viability / growth, in words [1]: cytostatic effect
O=C(Cn1cnc([N+](=O)[O-])n1)N/N=C/c1ccc(O)cc1O [Compound 151]	MMS sensitive	6 µM	6 µM	radiosensitizer activity (HCT116 and MCF10A cells): act as radiosensitizers; enhancement of the cytostatic effect of MMS (HCT116 and MCF10A cells): enhance the cytostatic effect of MMS
O=C1Nc2ccccc2Oc2cc([N+](=O)[O-])cc([N+](=O)[O-])c21 [Compound 180]		3 µM	3 µM	
CS(=O)(=O)NNC(=O)C(=O)NNc1ccccc1 [Compound 184]				cell killing (colony formation) (MCF7 cells; MCF7, compound alone, compared with MCF10A, FIG. 6A): more effective at killing
Nc1nc(S)nc(O)c1/N=C/c1ccccc1 [Compound 189]	IR sensitive			inhibition of step 2 of the ligation reaction ([2]; 100 μM, FIG. 3B): inhibits step 2; Mechanism: ligation step inhibited (2nd step) ([2]; Table 5A): 2nd
O=C(c1ccc(O)cc1)c1ccccc1O [Compound 200]		~5 µM	10 to 150 µM	
